Laboratory results taken from ChEMBL document CHEMBL1201862, “PubChem BioAssay data set” (2004).
The source made the active and inactive calls.

Assays:
[1] = target: T1, Bifunctional protein GlmU (Mycobacterium tuberculosis, UniProt P9WMN3); assay: Inhibitors of Mycobacterial Glucosamine-1-phosphate acetyl transferase (GlmU). Secondary screen.; parameters: species or system Mycobacterium tuberculosis H37Rv
T1 sequence (P9WMN3 whole entry): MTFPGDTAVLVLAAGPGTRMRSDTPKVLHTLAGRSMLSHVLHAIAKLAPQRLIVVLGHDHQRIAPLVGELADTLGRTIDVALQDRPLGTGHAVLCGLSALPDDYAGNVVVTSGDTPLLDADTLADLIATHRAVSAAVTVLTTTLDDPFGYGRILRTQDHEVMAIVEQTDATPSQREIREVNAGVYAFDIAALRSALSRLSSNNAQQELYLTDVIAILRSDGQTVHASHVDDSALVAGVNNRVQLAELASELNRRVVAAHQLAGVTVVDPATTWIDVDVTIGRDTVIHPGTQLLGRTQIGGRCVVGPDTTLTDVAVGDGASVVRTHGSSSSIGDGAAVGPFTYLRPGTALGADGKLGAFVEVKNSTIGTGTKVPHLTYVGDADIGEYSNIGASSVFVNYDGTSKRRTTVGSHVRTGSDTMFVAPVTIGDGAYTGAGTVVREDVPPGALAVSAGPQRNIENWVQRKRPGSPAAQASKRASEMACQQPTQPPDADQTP

Protein skinhead-1 = target: T2, Protein skinhead-1 (Caenorhabditis elegans, UniProt P34707); format: functional
T2 sequence (P34707 whole entry): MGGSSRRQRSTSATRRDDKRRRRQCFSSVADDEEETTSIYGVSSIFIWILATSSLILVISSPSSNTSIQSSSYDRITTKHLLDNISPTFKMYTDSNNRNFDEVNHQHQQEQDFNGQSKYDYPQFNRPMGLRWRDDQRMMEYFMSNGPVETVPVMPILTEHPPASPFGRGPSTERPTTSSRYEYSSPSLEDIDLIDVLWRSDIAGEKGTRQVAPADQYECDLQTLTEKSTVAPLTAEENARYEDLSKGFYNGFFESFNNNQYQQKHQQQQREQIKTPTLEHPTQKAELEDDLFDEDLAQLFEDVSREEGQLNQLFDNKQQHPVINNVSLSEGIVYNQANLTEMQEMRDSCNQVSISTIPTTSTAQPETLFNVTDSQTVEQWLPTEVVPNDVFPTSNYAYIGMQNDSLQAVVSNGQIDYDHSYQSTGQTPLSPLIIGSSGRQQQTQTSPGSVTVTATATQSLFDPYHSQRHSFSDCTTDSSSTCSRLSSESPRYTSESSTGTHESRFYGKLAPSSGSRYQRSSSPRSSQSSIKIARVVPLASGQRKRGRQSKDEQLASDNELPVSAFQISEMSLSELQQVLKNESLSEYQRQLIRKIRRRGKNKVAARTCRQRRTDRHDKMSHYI

[2] = target: E3 ubiquitin-protein ligase Mdm2 (Homo sapiens, UniProt Q00987); assay: enhancers of MDM2-luciferase reporter signal, concentration-effect titration, project on inhibitors of MDM2 ubiquitin ligase, cellular assay, luminescent readout, 384-well plate format (AID 1394); format: functional;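 note: MDM2 E3 inhibitors raise luminescence so EC50 is for signal enhancement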
E3 ubiquitin-protein ligase Mdm2, sequence (Q00987 whole entry): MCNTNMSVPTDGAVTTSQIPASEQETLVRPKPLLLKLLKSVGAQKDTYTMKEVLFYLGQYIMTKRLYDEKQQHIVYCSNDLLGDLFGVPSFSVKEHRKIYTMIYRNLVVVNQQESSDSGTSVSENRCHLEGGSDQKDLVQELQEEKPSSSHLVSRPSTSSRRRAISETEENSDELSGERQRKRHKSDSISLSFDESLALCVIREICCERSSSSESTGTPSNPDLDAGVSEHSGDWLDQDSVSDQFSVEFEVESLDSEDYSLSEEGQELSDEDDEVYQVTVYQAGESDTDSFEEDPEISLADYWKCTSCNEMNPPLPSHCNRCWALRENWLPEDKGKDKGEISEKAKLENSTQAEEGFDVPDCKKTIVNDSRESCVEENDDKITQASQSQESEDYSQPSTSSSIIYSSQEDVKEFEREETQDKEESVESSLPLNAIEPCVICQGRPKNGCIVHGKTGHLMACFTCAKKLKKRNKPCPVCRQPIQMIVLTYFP

Troponin, cardiac muscle = Troponin, cardiac muscle (Homo sapiens, UniProt P19429+P45379+P63316); assay: Fluorescence-based biochemical high throughput dose response assay for activators of the calcium sensitivity of cardiac Regulated Thin Filaments (RTF). [Related pubchem assays (depositor defined):AID493008, AID493018, AID504382, AID504383]; format: protein-complex assay
[3] = target: T3, Rac GTPase-activating protein 1 (Homo sapiens, UniProt Q9H0H5); assay: MgcRacGAP GTPase-activating activity inhibitors, confirmation, biochemical, ADP Hunter fluorescence, primary and confirmatory (AID 624330); format: functional
T3 sequence (Q9H0H5 whole entry): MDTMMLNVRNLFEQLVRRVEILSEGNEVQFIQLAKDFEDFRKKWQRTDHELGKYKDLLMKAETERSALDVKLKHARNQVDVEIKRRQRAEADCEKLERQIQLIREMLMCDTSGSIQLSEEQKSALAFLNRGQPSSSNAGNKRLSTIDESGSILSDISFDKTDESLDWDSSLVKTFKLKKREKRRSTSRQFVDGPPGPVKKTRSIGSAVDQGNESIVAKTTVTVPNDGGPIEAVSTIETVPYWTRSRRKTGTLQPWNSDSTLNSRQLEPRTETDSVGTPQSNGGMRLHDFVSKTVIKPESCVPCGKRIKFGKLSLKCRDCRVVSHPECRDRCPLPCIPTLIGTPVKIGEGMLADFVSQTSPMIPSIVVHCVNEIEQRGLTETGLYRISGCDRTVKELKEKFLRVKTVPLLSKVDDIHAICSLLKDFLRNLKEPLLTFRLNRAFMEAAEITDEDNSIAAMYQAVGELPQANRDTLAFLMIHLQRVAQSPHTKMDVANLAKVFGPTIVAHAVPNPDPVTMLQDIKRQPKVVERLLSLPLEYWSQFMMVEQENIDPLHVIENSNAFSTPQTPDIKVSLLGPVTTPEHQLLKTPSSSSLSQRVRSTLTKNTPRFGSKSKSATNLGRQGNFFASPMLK

Cannabinoid receptor 2 [4] = target: T4, Cannabinoid receptor 2 (Homo sapiens, UniProt P34972); assay: SAR analysis of agonists of the Cannabinoid Receptor 2 using an Image-Based Assay - Set 3. [Related pubchem assays (depositor defined):AID2013, AID2026]; format: functional
T4 sequence (P34972 whole entry): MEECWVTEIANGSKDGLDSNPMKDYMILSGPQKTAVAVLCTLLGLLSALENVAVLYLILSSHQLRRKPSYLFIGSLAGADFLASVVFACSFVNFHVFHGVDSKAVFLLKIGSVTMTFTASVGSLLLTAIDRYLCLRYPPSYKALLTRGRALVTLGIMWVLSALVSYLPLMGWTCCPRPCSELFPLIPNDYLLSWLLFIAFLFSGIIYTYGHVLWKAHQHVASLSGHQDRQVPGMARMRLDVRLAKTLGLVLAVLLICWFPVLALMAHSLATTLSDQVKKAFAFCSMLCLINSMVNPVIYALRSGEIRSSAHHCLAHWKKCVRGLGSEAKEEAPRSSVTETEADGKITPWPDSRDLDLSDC

Cannabinoid receptor 1 [5] = target: T5, Cannabinoid receptor 1 (Homo sapiens, UniProt P21554); assay: SAR analysis of agonists of the Cannabinoid Receptor 1 using an Image-Based Assay - Set 4. [Related pubchem assays (depositor defined):AID2013, AID2026]; format: functional
T5 sequence (P21554 whole entry): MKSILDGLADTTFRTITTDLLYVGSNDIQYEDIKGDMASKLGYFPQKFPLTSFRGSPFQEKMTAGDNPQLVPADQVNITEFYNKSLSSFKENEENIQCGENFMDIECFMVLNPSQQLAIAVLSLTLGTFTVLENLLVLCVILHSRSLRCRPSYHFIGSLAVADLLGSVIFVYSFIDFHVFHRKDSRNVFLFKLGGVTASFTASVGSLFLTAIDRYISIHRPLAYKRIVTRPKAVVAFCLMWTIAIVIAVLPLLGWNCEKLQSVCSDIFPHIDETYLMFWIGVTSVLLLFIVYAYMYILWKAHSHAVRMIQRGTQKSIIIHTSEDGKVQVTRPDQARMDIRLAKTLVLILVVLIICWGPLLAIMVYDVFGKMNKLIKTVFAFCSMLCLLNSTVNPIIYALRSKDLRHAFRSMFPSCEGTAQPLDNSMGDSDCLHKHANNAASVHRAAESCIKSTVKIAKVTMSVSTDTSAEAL

[6] = target: G-protein coupled receptor 55 (Homo sapiens, UniProt Q9Y2T6); assay: SAR Analysis of Selective Antagonists of GPR55 using an Image-Based Assay - Set 4. [Related pubchem assays (depositor defined):AID2013, AID2026]; format: functional;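 note: antagonism of response to 5 µM lysophosphatidylinositol agonist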
G-protein coupled receptor 55, sequence (Q9Y2T6 whole entry): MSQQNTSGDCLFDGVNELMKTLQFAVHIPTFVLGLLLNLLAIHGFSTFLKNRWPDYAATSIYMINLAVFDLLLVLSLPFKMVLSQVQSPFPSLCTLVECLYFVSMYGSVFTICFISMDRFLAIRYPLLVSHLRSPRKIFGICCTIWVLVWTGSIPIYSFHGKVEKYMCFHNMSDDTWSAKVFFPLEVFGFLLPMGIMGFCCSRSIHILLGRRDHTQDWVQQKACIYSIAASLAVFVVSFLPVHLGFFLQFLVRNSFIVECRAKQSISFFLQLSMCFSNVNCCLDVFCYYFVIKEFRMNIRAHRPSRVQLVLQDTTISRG

[7] = target: T6, G-protein coupled receptor 35 (Homo sapiens, UniProt Q9HC97); assay: SAR analysis of Agonists of the GPR35 Receptor using an Image-Based Assay - Set 4. [Related pubchem assays (depositor defined):AID2013, AID2026]; format: functional
T6 sequence (Q9HC97 whole entry): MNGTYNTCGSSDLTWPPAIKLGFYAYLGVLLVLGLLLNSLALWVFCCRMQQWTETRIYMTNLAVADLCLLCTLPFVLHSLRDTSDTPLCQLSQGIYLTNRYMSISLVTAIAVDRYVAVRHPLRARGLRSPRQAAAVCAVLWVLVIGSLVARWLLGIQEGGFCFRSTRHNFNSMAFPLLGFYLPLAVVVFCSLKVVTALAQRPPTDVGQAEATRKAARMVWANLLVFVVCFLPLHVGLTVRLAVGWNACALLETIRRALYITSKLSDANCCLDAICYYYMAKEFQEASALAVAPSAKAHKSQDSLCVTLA

Cannabinoid receptor 2 [8] = target: T4, Cannabinoid receptor 2; assay: SAR analysis of antagonists of the Cannabinoid Receptor 2 using an Image-Based Assay - Set 3. [Related pubchem assays (depositor defined):AID2013, AID2026]; format: functional
[9] = target: T6, G-protein coupled receptor 35; assay: SAR analysis of Antagonists of the GPR35 Receptor using an Image-Based Assay - Set 6. [Related pubchem assays (depositor defined):AID2013, AID2026]; format: functional
Cannabinoid receptor 1 [10] = target: T5, Cannabinoid receptor 1; assay: SAR analysis of antagonists of the Cannabinoid Receptor 1 using an Image-Based Assay - Set 4. [Related pubchem assays (depositor defined):AID2013, AID2026]; format: functional
[11] = target: Voltage-dependent T-type calcium channel subunit alpha-1H (Homo sapiens, UniProt O95180); assay: Cav3.2 T-type channel inhibitors, synthesized analogs, SAR follow-up, cell-based, synthetic library set 2, HEK293 HH8, Fluo-4 (AID 493023); format: functional
Voltage-dependent T-type calcium channel subunit alpha-1H, sequence (O95180 whole entry): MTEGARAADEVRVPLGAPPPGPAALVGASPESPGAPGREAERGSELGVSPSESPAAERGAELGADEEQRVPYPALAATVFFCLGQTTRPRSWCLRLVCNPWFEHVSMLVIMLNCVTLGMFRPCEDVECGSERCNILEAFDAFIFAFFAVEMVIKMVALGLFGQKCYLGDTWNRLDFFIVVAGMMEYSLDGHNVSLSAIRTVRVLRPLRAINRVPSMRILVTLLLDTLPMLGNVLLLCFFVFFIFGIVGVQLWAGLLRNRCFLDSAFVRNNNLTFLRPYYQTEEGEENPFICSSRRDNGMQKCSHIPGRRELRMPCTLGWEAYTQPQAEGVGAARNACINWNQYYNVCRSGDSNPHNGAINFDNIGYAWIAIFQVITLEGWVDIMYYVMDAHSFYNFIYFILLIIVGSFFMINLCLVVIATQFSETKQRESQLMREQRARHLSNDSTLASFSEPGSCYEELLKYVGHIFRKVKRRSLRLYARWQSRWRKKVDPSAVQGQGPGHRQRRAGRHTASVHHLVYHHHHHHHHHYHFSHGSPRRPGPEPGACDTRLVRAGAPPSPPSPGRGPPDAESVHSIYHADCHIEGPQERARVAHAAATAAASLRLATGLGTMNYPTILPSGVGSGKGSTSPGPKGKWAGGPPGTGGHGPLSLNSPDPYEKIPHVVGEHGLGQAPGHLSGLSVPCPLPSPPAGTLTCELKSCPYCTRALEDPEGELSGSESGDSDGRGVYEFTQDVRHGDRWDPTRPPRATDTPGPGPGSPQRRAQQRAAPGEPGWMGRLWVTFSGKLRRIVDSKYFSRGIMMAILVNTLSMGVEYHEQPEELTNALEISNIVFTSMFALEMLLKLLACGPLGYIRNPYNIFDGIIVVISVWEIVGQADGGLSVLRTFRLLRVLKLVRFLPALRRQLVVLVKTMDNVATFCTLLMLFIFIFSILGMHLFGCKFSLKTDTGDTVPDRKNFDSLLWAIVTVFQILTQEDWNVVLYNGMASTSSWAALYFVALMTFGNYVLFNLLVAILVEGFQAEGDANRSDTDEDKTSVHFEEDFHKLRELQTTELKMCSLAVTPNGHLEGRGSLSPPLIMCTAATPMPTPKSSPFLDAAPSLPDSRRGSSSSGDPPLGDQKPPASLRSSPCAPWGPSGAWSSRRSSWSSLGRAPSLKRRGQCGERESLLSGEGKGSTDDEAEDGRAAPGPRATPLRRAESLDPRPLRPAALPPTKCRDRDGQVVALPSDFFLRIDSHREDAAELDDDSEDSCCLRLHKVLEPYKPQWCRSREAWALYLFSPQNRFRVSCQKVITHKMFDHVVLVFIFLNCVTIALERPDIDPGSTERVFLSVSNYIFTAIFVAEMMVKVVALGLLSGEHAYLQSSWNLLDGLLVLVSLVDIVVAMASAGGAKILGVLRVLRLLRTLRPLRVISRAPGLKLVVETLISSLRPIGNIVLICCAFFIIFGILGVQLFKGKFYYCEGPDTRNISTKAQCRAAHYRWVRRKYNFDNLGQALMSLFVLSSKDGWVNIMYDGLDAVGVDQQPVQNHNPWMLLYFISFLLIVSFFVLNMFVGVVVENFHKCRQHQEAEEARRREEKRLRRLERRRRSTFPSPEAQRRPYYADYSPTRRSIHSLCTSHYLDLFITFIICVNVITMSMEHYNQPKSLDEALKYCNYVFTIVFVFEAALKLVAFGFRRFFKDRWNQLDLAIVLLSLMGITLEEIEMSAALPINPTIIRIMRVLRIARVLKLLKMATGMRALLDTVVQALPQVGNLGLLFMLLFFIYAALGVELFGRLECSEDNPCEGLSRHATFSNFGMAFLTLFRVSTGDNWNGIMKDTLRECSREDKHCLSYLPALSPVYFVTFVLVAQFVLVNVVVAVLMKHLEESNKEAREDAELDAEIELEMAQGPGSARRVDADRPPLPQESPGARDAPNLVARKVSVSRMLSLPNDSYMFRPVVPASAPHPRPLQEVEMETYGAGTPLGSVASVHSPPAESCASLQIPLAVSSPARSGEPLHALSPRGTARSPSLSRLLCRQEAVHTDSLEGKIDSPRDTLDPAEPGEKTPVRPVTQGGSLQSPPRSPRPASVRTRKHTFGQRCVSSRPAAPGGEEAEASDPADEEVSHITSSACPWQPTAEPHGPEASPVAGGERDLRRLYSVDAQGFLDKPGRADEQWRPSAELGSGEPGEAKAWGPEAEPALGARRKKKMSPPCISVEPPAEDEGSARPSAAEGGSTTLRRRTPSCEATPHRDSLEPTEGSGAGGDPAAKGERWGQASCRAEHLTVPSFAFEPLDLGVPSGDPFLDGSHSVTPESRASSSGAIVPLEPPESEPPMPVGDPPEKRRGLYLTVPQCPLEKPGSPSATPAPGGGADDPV

## CCN(CC)c1ccc(/C=C2\C(=O)c3ccc(C(=O)O)cc3C2=O)cc1
[1]
  IC50: 37.7 µM (active)
Protein skinhead-1
  IC50: 23.3 µM (active)
[2]
  EC50: 0.1 µM (active)
Troponin, cardiac muscle
  EC50: 0.516 µM (active)
[3]
  IC50: 85.4 µM (active)

## Cc1nc(N2CCN(C(=O)c3ccncc3)CC2)c2c3c(sc2n1)CC(C)CC3 (stereo not given)
Cannabinoid receptor 2 [4]
  EC50: > 32 µM (inactive)
Cannabinoid receptor 1 [5]
  EC50: > 32 µM (inactive)
[6]
  IC50: > 32 µM (inactive)
[7]
  EC50: > 32 µM (inactive)
Cannabinoid receptor 2 [8]
  IC50: > 32 µM (inactive)
[9]
  IC50: > 32 µM (inactive)
Cannabinoid receptor 1 [10]
  IC50: 13.3 µM (inactive)

## Cc1nc(N2CCN(C(=O)c3ccccc3)CC2)c2c3c(sc2n1)CC(C)CC3 (stereo not given)
Cannabinoid receptor 2 [4]
  EC50: 24.1 µM (inactive)
Cannabinoid receptor 1 [5]
  EC50: > 32 µM (inactive)
[6]
  IC50: 21.5 µM (inactive)
[7]
  EC50: > 32 µM (inactive)
Cannabinoid receptor 2 [8]
  IC50: > 9.18 µM (active)
[9]
  IC50: > 32 µM (inactive)
Cannabinoid receptor 1 [10]
  IC50: 1.68 µM (active)

## O=C(COc1ccccc1Cl)N[C@H]1CCCN(Cc2ccccc2)C1
[11]
  EC50: 10 µM (active)
